Drawing on PMC9499525, “Tissue-restricted inhibition of mTOR using chemical genetics” (Proceedings of the National Academy of Sciences of the …, 2022), this text covers EC50 for one compound.

The target in the test is T1, FKBP12-HA (wild-type) / GST-mTOR FRB domain ternary complex (Homo sapiens, UniProt P42345+P62942).
T1 construct: recombinant HA-tagged wild-type or V55G mutant FKBP12 with GST-tagged mTOR FRB domain; 8xHis (cleaved yes); made in house; host or cells: E. coli BL21 (DE3) for FKBP12
T1 sequence (P62942 whole entry, the tested form may be a part): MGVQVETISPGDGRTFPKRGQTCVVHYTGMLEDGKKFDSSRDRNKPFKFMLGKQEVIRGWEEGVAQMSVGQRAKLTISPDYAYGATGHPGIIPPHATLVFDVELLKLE
T1 sequence (P42345 2012-2144 limits assumed): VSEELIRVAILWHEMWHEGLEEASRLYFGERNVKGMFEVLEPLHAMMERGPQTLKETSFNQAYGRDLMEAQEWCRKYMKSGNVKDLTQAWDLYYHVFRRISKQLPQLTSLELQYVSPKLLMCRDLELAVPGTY
In words: TR-FRET ternary complex formation, wild-type FKBP12 with mTOR FRB. The test is classed as binding. As to conditions: wild-type FKBP12 + mTOR FRB, n = 3, read-out: EC50 of ternary complex induction, wild-type FKBP12. As to the method:
TR-FRET assay was performed using recommended conditions from Cisbio with slight modifications. FKBP12-HA, FKBP12 V55G-HA, and GST-mTORFRB recombinant proteins were each diluted to 5 nM in assay buffer (20 mM HEPES pH 7.5, 150 mM NaCl, 0.05% Tween-20, 0.1% bovine serum albumin [BSA], 0.5 mM dithiothreitol [DTT]). Anti-GST-Tb (Cisbio) and Anti-HA-XL665 (Cisbio) were diluted to 0.625 µg/mL and 5 µg/mL, respectively, in assay buffer. Rapa* compounds and FK506 were diluted to 50 µM and rapamycin to 5 µM in assay buffer containing 5% DMSO, and threefold serial dilution series were made from these solutions. […] Time-resolved fluorescence was read on a Tecan Spark 20M plate reader with the following parameters: Lag time: 60 µs; Integration time: 500 µs; Read A: Excitation filter 320 ([25]) nm, Emission filter 610 ([25]) nm, Gain 130; Read B: Excitation filter 320 ([25]) nm, Emission filter 665 ([8]) nm, Gain 165. […]
Human FKBP12 coding sequence was cloned a pET-47b bacterial expression vector using Gibson assembly and a C-terminal HA-tag was added by QuickChange PCR. FKBP12 proteins were expressed as 8xHis fusions in E. coli BL21 (DE3) cells. […]
PAMPA was performed by Quintara Discovery as described previously (2). Compounds were analyzed at 100 µM in PBS and measured using liquid chromatography-mass spectrometry (LC-MS) after 5 hours. […]

For the compound `CCO/N=C1/C[C@@H]([C@H](C)C[C@@H]2CC[C@@H](O)[C@H](OC)C2)OC(=O)[C@@H]2CCCCN2C(=O)C(=O)[C@]2(O)O[C@@H](CC[C@H]2C)C[C@H](OC)/C(C)=C/C=C/C=C/[C@@H](C)C[C@@H](C)C(=O)[C@H](OC)[C@H](O)/C(C)=C/[C@H]1C` [Rapa*-3Z], the EC50 was found to be 639 nM.
